Laboratory results from patent publication US20080146555A1, “Uses of Kinase Inhibitors and Compositions Thereof” (GPC Biotech, Inc, priority 2004, published 2008).
Counter-ions that a name gives are not always drawn. Like-named read-outs stand apart in the source and are kept apart here.

Assays:
[1] = system: adriamycin resistant cell line (ADR-res); test: NCI panel, adriamycin resistant cell line, SRB assay; type: cell-based; conditions: Homo sapiens, 48 h
Text: The evaluation of compounds at the National Cancer Institute in their panel of 60 cell lines provides a wealth of information regarding efficacy in a wide range of tumor types and genetic backgrounds. Included within this panel are cell lines derived from leukemia, melanoma and cancers of the lung, colon, brain, ovary, breast, prostate and kidney. Use of this panel provides a measure of the efficacy of compounds in cells with alterations in many genes that are associated with neoplastic transformation including p53 and Her2/Neu as well as those involved in metabolism and those which confer multi-drug resistance. The data generated in these cell lines with the protocol described below can be used to evaluate the activity of compounds.
Cells were grown in RPMI-1640 10% FCS and plated in 96 well micro-titer plates at densities ranging from 5,000 to 40,000 cells/well. The plates were incubated for 24 hours at 37° C., 5% CO2 for 24 hours. Media containing twice the desired final concentration of the compound (5 doses spanning 4 logs) was prepared and 100 μl was added to each well containing 100 μl media plus cells to yield the desired final concentration. The plates were then incubated for an additional 48 hours.
The effect of the compound on cellular viability was determined with the Sulforhodamine B (SRB) assay, which measures total protein. Cells were fixed with cold TCA to a final concentration of 10% and incubated at 4° C. for 60 minutes. The supernatant was discarded and the plates were washed five times with water and air-dried. SRB solution at […] in 1% acetic acid was added to each well and the plates were incubated for 10 minutes at room temperature. The plates were washed five times with 1% acetic acid and air-dried. The bound stain was solubilized with 10 mM trizma base and the absorbance was read on a plate reader at […].

Blk = molecular target: T1, Blk (Homo sapiens, UniProt P51451); test: Blk kinase assay; type: biochemical
T1 construct: purchased Upstate 14-517
T1 sequence (P51451 whole entry): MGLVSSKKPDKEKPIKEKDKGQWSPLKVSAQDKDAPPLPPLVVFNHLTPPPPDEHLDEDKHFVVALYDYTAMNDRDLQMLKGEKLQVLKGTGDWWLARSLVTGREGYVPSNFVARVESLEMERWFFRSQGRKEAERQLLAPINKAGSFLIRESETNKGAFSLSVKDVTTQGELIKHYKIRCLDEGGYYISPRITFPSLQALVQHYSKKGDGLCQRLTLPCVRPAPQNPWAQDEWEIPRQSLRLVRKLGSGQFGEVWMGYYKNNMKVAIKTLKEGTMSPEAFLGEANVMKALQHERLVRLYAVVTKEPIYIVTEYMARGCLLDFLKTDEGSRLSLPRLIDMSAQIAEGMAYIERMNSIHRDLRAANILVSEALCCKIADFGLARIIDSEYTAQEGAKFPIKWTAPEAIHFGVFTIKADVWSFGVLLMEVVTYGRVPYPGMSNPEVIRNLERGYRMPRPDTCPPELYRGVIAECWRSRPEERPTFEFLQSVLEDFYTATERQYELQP
Experimental: • 1. 10× Reaction buffer: […], 1 mM sodium orthovanadate, 1% 2-mercaptoethanol. • 2. Enzyme Dilution Buffer (EDB): 50 mM Tris-HCl pH 7.5, 0.1 mM EGTA, 0.1 mM sodium orthovanadate, 0.1% 2-mercaptoethanol 0.03% Brij-35. • 3. Blk (human), active: Dilute to 4-40 ng/μl with EDB. Use 2.5 μl per assay point. • 4. Poly(Glu-4-Tyr) (4:1): Prepare a 1 mg/ml stock. Use 2.5 μl per assay point for a final assay concentration of 0.1 mg/ml per assay point. • 5. [γ-^32P]ATP: Stock 1 mCi/100 μl (3000 Ci/mmol, obtained from PerkinElmer, Cat. # BLU002A). Make 10 μl aliquots (100 μCi/vial). Before starting the assay, dilute an aliquot to 1 μCi/μl with 90 μl of 75 mM MgCl2 and 500 μM cold ATP in 20 mM MOPS, pH 7.2, 25 mM β-glycerol phosphate, 5 mM EGTA, 1 mM sodium orthovanadate, 1 mM dithiothreitol.
• 1. Add 2.5 μl of 10× Reaction Buffer per assay. • 2. Add 2.5 μl (0.1 mg/ml) of Poly (Glu-4-Tyr) (4:1). • 3. Add 2.5 μl (10-100 ng) of Blk (human), active. • 4. Add 7.5 μl sterile, distilled water. • 5. Add 10 μl of the diluted [γ-^32P]ATP solution. • 6. Incubate for 10 minutes at 30° C. • 7. Transfer a 20 μl aliquot onto the center of a […]. • 8. Wash the assay squares three times for 5 minutes with 0.75% phosphoric acid. • 9. Wash the assay squares once for 5 minutes with acetone. • 10. Transfer the assay squares to vial and add 1 ml scintillation cocktail. • 11. Read in scintillation counter. Compare cpm of enzyme samples to cpm of control samples that contain background control.

Lyn = molecular target: T2, Lyn (Homo sapiens, UniProt P07948); test: Lyn kinase assay; type: biochemical
T2 construct: purchased Upstate 14-510
T2 sequence (P07948 whole entry): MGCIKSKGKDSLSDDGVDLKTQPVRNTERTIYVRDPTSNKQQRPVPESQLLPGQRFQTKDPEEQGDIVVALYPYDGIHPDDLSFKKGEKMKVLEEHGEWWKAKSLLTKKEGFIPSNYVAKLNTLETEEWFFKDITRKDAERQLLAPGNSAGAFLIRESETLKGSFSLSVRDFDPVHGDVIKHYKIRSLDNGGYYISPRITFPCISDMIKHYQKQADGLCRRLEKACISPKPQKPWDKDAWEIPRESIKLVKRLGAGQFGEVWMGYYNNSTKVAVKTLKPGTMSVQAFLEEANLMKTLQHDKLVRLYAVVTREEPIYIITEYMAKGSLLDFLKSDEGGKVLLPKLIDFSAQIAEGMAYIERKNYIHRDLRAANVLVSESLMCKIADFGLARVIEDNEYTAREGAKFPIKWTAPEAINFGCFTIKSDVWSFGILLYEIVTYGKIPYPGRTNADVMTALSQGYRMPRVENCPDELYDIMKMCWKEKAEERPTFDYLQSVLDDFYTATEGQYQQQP
Experimental: • 1. 10× Reaction Buffer: 500 mM Tris-HCl, pH 7.5, 1 mM EGTA, 1 mM sodium orthovanadate, 1% 2-mercaptoethanol. • 2. Enzyme Dilution Buffer (EDB): 50 mM Tris-HCl, pH 7.5, 1 mM EGTA, 0.1 mM sodium orthovanadate, 0.03% Brij-35, 0.1% 2-mercaptoethanol, 1 mg/ml BSA. • 3. Lyn, active: Dilute to 2-16 ng/μl with EDB. Use 2.5 μl per assay point. • 4. Poly(Glu-4-Tyr) (4:1): Prepare a 1 mg/ml stock. Use 2.5 μl per assay point for a final concentration of 0.1 mg/ml per assay point. • 5. [γ-^32P]ATP: Stock 1 mCi/100 μl (3000 Ci/mmol, obtained from PerkinElmer, Cat. # BLU002A). Make 10 μl aliquots (100 μCi/vial). Before starting the assay, dilute an aliquot to 1 μCi/μl with 90 μl of 75 mM MgCl2 and 500 μM cold ATP in 20 mM MOPS, pH 7.2, 25 mM β-glycerol phosphate, 5 mM EGTA, 1 mM sodium orthovanadate, 1 mM dithiothreitol.
• 1. Add 2.5 μl of 10× Reaction Buffer per assay. • 2. Add 2.5 μl of Poly (Glu-4-Tyr) (4:1). • 3. Add 2.5 μl (5-40 ng) Lyn, active. • 4. Add 7.5 μl of sterile, distilled water. • 5. Add 10 μl of the diluted [γ-^32P]ATP mixture. • 6. Incubate for 10 minutes at 30° C. • 7. Transfer a 20 μl aliquot onto the center of a 2 cm×2 cm P81 paper. • 8. Wash the assay squares three times for 5 minutes with 0.75% phosphoric acid. • 9. Wash the assay squares once for 5 minutes with acetone. • 10. Transfer the assay squares to vial and add 5 ml scintillation cocktail. • 11. Read in scintillation counter. Compare cpm of enzyme samples to cpm of control samples that contain background control.

[2] = read-out: BLK Inhibition (IC50)
[3] = read-out: LYN Inhibition (IC50)

SMILES | IC50 [1] [nM] | IC50 (Blk; kinase panel, read-out: Blk IC50) [nM] | IC50 (Blk; [2]) [nM] | IC50 (Lyn; kinase panel, 10 μM ATP, read-out: Lyn IC50) [nM] | IC50 (Lyn; [3]) [nM]
COCCN1CCN(Cc2ccc(-c3n[nH]c4c3C(=O)c3c(NC(=O)NN5CCOCC5)cccc3-4)cc2)CC1 [Compound B16, N-[3-(4-{[4-(2-methoxyethyl)piperazinyl]methyl}phenyl)-4-oxoindeno[2,3-d]pyrazol-5-yl](morpholin-4-ylamino)carboxamide dihydrochloride] | < 10000 | < 100 | < 100 | < 100 | < 100
CC(C)N1CCN(C(=O)COc2ccc(-c3n[nH]c4c3C(=O)c3c(NC(=O)NN5CCOCC5)cccc3-4)cc2)CC1 [Compound A37] | < 100000 |  | < 100 |  | < 50
